According to patent publication US6262073A, “Pharmaceutical methods of use of 5-substituted and 5,5 disubstituted-3,4-dihydroxy-2(5H)-furanones” (Oxis International Inc., priority 2000, dated 2001):

Tests used:
NF-κB = NF-κB nuclear membrane translocation, EMSA, LPS-treated NR8383 cells; assay type: cell-based; details: Rattus norvegicus
Protocol: Experiments measuring test agents effect on NF-κB nuclear membrane translocation were performed with NR8383 cells, which are transformed rat alveolar macrophages. […] In addition, some compounds were tested at doses of 10 and 30 μM. Untreated control cells and cells treated with LPS alone were tested in each experiment. Cells were harvested 6 hours after treatment. Nuclear proteins were extracted, frozen and quantified using the Bradford assay. Electrophoretic mobility shift assays (EMSA) were subsequently analyzed using a radiolabeled NF-κB probe. Nuclear proteins were reacted with the radiolabeled probe, run on a 5% polyacrylamide gel, and subjected to autoradiography. Specificity of protein binding for the NF-κB binding site was assayed by cold and nonspecific competition using the LPS treated sample in each experiment. All EMSA were duplicated at least once to verify results. Laser densitometry of NF-κB bands was done on autoradiographs to quantify NF-κB binding activity.

[1] = target: T1, Cyclooxygenase-1 (cyclooxygenase from ram seminal vesicles) (Ovis aries, UniProt P05979); assay: Cyclooxygenase-1 screen (COX-1); assay type: biochemical; details: 300 μM
T1 construct: cyclooxygenase from ram seminal vesicles; from tissue; host or cells: ram seminal vesicles
T1 sequence (P05979 25-600): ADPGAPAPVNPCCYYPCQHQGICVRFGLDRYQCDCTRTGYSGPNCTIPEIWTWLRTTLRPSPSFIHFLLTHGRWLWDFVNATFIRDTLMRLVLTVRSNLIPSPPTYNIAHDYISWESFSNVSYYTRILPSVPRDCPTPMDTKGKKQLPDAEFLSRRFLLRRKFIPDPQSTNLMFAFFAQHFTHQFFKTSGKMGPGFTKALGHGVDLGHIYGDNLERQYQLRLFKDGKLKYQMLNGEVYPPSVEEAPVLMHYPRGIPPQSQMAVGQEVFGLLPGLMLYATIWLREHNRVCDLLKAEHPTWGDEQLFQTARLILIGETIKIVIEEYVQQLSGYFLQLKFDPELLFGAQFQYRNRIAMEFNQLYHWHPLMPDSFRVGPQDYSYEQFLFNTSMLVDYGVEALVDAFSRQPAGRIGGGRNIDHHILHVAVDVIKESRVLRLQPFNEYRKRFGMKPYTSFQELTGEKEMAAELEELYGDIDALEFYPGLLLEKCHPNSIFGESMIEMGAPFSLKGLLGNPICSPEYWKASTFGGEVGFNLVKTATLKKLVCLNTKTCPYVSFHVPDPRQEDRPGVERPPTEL
Protocol: (§1) The compounds of the invention were screened for their anti-inflammatory activity using a series of in vitro tests the details of which are given below. The activity of various compounds against 5-lipoxygenase, cycloxygenase-1, cycloxygenase-2 and lipid peroxidase was evaluated. Results of the screening procedures are included in TABLE I, and the activity against 5-lipoxygenase at a test concentration of 1 μM in Table II.
Cyclooxygenase-1 is involved in the formation of prostaglandins and thromboxane via the oxidative metabolism of arachidonic acid. Briefly, cyclooxygenase from ram seminal vesicles is incubated with arachidonic acid (100 μm) for 2 minutes at 37° C. in the presence or absence of test compounds according to the methods of A. T. Evans et al., Biochem. Pharm. 36:2035-2037(1987) and R. Boopathy et al., Biochem J. 239:371-377 (1968). The assay is terminated by the addition of trichioroacetic acid and cyclooxygenase activity is determined by reading the absorbance at 530 nm. […]

[2] = target: T2, Cyclooxygenase-2 (prostaglandin H synthetase-2) from sheep placenta (Ovis aries, UniProt P79208); assay: Cyclooxygenase-2 screen (COX-2); assay type: biochemical; details: read-out: COX-2 percent inhibition
T2 construct: cyclooxygenase-2 from sheep placenta; from tissue; host or cells: sheep placenta
T2 sequence (P79208 17-603): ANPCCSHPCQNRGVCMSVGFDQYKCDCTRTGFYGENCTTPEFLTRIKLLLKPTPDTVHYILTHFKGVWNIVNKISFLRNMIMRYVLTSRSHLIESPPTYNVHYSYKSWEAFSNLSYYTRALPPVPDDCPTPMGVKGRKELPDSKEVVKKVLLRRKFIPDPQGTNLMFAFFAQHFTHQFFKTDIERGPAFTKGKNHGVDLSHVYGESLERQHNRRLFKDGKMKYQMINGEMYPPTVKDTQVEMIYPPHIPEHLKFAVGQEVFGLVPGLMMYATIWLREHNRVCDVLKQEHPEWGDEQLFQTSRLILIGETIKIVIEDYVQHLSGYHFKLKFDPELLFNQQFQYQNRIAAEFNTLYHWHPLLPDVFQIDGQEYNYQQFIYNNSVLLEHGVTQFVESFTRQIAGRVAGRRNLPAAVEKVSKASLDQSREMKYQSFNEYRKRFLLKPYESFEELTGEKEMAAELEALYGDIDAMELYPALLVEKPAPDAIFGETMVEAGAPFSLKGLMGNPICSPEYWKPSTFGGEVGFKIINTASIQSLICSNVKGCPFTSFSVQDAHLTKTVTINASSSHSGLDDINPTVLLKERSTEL
Protocol: as §1
Cyclooxygenase-2, also known as prostaglandin H synthetase-2, catalyzes the rate- limiting step in the synthesis of inflammatory prostaglandins. In this reaction cyclooxygenase-2 catalyzes the oxygenation of unesterified precursors to form cyclic endoperoxide derivatives, including prostaglandin H. Briefly, cyclooxygenase-2 from sheep placenta, 14 μg/assay tube, is incubated with arachidonic acid (500 μM) for 1.5 minutes at 27° C. in the absence or presence of test compounds according to the methods of A. T. Evans, et al., Biochem Pharm. […] Res. Comm. […] Compounds are screened at 300 μM.

[3] = target: T3, 5-Lipoxygenase (crude enzyme preparation from rat basophilic leukemia cells, RBL-1) (Rattus norvegicus, UniProt P12527); assay: 5-Lipoxygenase screen (5-LO), 5-HETE by RIA; assay type: biochemical; details: for inhibition at 30 µM: read-out: 5-LO percent inhibition; for inhibition at 1 µM: read-out: Percent inhibition of 5-LO, test conc. 1 μM (Table II)
T3 construct: crude enzyme preparation from rat basophilic leukemia cells (RBL-1); endogenous in cells; host or cells: rat basophilic leukemia cells (RBL-1)
T3 sequence (P12527 1-673): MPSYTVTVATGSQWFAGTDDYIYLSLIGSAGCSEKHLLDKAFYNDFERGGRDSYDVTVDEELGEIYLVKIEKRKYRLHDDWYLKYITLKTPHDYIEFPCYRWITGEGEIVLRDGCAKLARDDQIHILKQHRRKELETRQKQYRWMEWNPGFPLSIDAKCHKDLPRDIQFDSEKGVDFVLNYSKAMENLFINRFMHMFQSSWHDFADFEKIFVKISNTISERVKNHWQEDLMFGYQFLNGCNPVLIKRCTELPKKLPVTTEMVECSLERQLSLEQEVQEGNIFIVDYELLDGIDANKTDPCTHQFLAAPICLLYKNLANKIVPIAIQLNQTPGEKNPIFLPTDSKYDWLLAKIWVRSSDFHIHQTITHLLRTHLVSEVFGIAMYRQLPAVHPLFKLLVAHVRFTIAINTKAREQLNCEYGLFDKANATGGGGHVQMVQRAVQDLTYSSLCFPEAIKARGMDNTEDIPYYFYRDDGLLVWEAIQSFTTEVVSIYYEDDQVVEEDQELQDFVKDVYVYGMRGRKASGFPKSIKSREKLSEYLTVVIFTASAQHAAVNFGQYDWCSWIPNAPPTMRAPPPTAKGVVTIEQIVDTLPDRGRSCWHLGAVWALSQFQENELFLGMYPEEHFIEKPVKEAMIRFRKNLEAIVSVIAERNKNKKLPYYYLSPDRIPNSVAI
Protocol: as §1
5-Lipoxygenase catalyzes the oxidative metabolism of arachidonic acid to […] (5-HETE), the initial reaction leading to the formation of the leukotrienes. Briefly, the testing procedure utilizes a crude enzyme preparation from rat basophilic leukemia cells (RBL-1) according to the methods of T. Shimuzu et al. Pro. […] Test compounds are pre-incubated with the enzyme preparation for 5 minutes at room temperature and the reaction is initiated by the addition of arachidonic acid. Following an 8 minute incubation at room temperature, the reaction is terminated by the addition of citric acid and concentrations of 5-HETE are determined by RIA. Compounds are screened at 30 μM.

[4] = system: Lipid peroxidation (rat liver microsomes); assay: Lipid peroxidation screen (LPO), CCl4-induced, liver microsomes; assay type: biochemical; details: 300 μM
Protocol: as §1
Lipid peroxidation is a consequence of various stimuli, including reactive free radicals. Polyunsaturated fatty acids associated with plasma membranes are degraded due to enzymatic induction by reactive agents such as CCl4, leading to cellular damage. Briefly, microsomes are prepared from rat livers and the protein concentration is determined according to the method of D. Mansuy et al., Biochem. Biophys. Res. Comm. 135:1015-1021(1986). A reaction mixture consisting of 2 mg of the microsomal preparation, an NADPH generating system, 20 mM CCl4 and test compound are incubated for 12 minutes at 37° C. The reaction is terminated by the addition of a mixture of thiobarbituric acid and trichloroacetic acid. The absorbance is read at 535 nm and is proportional to the concentration of malondialdehyde. Compounds are screened at 300 μM.

[5] = system: Nuclear Factor-kappa B (NF-κB); assay: NF-κB lacZ (κB-Z) reporter assay in transfected Jurkat cells stimulated with A23187 and PMA; assay type: cell-based, human; details: Homo sapiens; 10 μM; κB-Z Jurkat cells, A23187 and PMA (Table III); read-out: NF-κB percent inhibition
Protocol: The human T lymphoid cell line Jurkat was transfected with a response element lacZ reporter in which transcription of the β-galactosidase gene is directed by the binding site for the NF-κB transcription factor. […] At the end of the incubation, the cells are spun down and resuspended in the buffer and FDG (fluorescein di-β-D-galactopyranoside) solution. The covered plates are further incubated in the dark for 16 hours at 25° C. […] Compounds were screened at 10 μM.

Compound | inhibition at 1 µM (NF-κB; 6 h, read-out: % Inhibition (NF-κB nuclear translocation)) [%] | COX-1 percent inhibition [1] [%] | inhibition at 300 µM [2] [%] | inhibition at 30 µM [3] [%] | inhibition at 1 µM [3] [%] | LPO percent inhibition [4] [%] | inhibition at 10 µM [5] [%] | inhibition at 0.03 µM (NF-κB; 30 nM, LPS 1 μg/ml, NR8383 cells, 6 hours) [%]
C[C@@H]1C[C@H]2[C@@H]3CCC4=CC(=O)C=C[C@]4(C)[C@@]3(F)[C@@H](O)C[C@]2(C)[C@@]1(O)C(=O)CO [Dexamethasone] | 60 | – | – | – | – | – | – | –
O=C1OC(CCSc2nc(-c3ccccc3)c(-c3ccccc3)o2)C(O)=C1O (stereo not shown) [Example 24, 3,4-Dihydroxy-5-[2-(4,5-diphenyl-1,3-oxazole-2-thio)ethyl]-2(5H)-furanone] | – | 76 | 68 | 113 | 71 | 78 | 44 | –
C[C@@]1(c2ccc(-c3ccccc3)cc2)OC(=O)C(O)=C1O [Example 11, (S)-(+)-5-[(1,1'-Biphenyl)-4-yl]-3,4-dihydroxy-5-methyl-2(5H)-furanone] | – | 34 | 10 | 101 | 59 | 71 | 72 | –
CC(C)Cc1ccc([C@@]2(C)OC(=O)C(O)=C2O)cc1 [Example 13, (R)-(-)-3,4-Dihydroxy-5-methyl-5-[4-(2-methylpropyl)phenyl]-2(5H)-furanone] | – | 12 | 14 | 102 | 59 | 76 | 49 | –
O=C1OC(CCC#Cc2ccc3ccccc3c2)C(O)=C1O (stereo not shown) [Example 32, 3,4-Dihydroxy-5-[4-(2-naphthyl)-3-butynyl]-2(5H)-furanone] | – | 34 | 23 | 98 | 66 | 75 | – | 90
CCCC1(c2ccc(-c3ccccc3)cc2)OC(=O)C(O)=C1O (stereo not shown) [Example 5, 5-[(1,1'-Biphenyl)-4-yl]-3,4-dihydroxy-5-propyl-2(5H)-furanone] | – | 13 | 22 | 99 | 68 | 70 | 68 | –
CCCC1(c2ccc(CC(C)C)cc2)OC(=O)C(O)=C1O (stereo not shown) [Example 9, 3,4-Dihydroxy-5-(4-isobutylphenyl)-5-(1-propyl)-2(5H)-furanone] | – | 25 | 19 | 82 | 40 | 79 | 26 | –
CC(C)CC1(c2ccc(-c3ccccc3)cc2)OC(=O)C(O)=C1O (stereo not shown) [Example 6, 5-[(1,1'-Biphenyl)-4-yl]-3,4-dihydroxy-5-(2-methylpropyl)-2(5H)-furanone] | – | 67 | 46 | 96 | 70 | 82 | 59 | –
CC(C)Cc1ccc(C2(c3ccccc3)OC(=O)C(O)=C2O)cc1 (stereo not shown) [Example 10, 3,4-Dihydroxy-5-(4-isobutylphenyl)-5-phenyl-2(5H)-furanone] | – | 43 | 34 | 106 | 64 | 89 | 16 | –
CC1(c2ccc(-c3ccccc3)cc2)OC(=O)C(O)=C1O (racemic) [Example 2, 5-[(1,1'-Biphenyl)-4-yl]-3,4-dihydroxy-5-methyl-2(5H)-furanone] | – | 33 | 22 | 107 | 15 | 78 | 90 | –
